In data set [1] the test system is Candida albicans ATCC90028. Briefly: Antifungal MIC, CO-ADD. Format: cell-based. The note with it: mean (n = 2). Here is the method:
(§1) For the antifungal assay, fungi strains were cultured for 3 days on YPD agar at 30 °C. A yeast suspension of 1 × 10^6 to 5 × 10^6 CFU/mL was prepared from five colonies. These stock suspensions were diluted with yeast nitrogen base (YNB) (Becton Dickinson, 233520) broth to a final concentration of 2.5 × 10^3 CFU/mL. […] Plates were covered and incubated at 35 °C for 36 h without shaking. C. albicans MICs were determined by measuring the absorbance at OD530. […] Fluconazole was used as a positive fungal inhibitor standard for C. albicans and C. neoformans. […] Quality control (QC) of the assays was determined by antimicrobial controls and Z’-factor (using positive and negative controls).

For data set [2], the system named is Cryptococcus neoformans ATCC208821. Briefly: Antifungal MIC, CO-ADD. The class given is cell-based. Conditions: ATCC208821, Cryptococcus neoformans ATCC208821, mean (n = 2). As for the experimental part:
as §1

Data set [3] concerns Pseudomonas aeruginosa PAO1 or ATCC 27853. Briefly: MIC, broth dilution (CA-SFM). The class given is cell-based. The note with it: mean (n = 3).
Data set [4] has as its system Klebsiella pneumoniae ATCC700603. Briefly: MIC, CO-ADD broth microdilution. The class given is cell-based. Conditions: mean (n = 2). In general terms: Broth dilution looks for growth in wells or tubes with falling amounts of substance.
Data set [5] relates to Escherichia coli ATCC 25922. Briefly: MIC, CO-ADD broth microdilution. The class given is cell-based. Conditions: ATCC25922, mean (n = 2).
The subject of data set [6] is human red blood cells. Briefly: Hemolytic assay. The class given is cell-based. Conditions: mean (n = 2). Here is the method: Human whole blood was washed three times with 3 volumes of 0.9% NaCl and then resuspended in same to a concentration of 0.5 × 10^8 cells/mL, as determined by manual cell count in a Neubauer hemocytometer. The washed cells were then added to the 384-well compound-containing plates for a final volume of 50 μL. After a 10 min shake on a plate shaker, the plates were then incubated for 1 h at 37 °C. After incubation, the plates were centrifuged at 1000× g for 10 min to pellet cells and debris; 25 μL of the supernatant was then transferred to a polystyrene 384-well assay plate. Hemolysis was determined by measuring the supernatant absorbance at […] (OD405). The absorbance was measured using a Tecan M1000 Pro monochromator plate reader. HC10 and HC50 (concentration at 10% and 50% hemolysis, respectively) were calculated by curve fitting the inhibition values vs. log (concentration) using a sigmoidal dose–response function with variable fitting values for top, bottom and slope.

Data set [7] can be described thus: Cytotoxicity assay (resazurin). Format: cell-based, human. Conditions: human; HEK293 cells; mean (n = 2); highest dose tested 32 μg/mL; read-out: Cytotoxicity (concentration of compound at 50% cytotoxicity, IC50). A general note: The colour change of resazurin is a common sign of viable cells or microbes.
For data set [8], the system named is Staphylococcus aureus ATCC 25923 or ATCC 29213. Briefly: MIC, broth dilution (CA-SFM). Format: cell-based. The note with it: Staphylococcus aureus ATCC 25923 or ATCC 29213; mean (n = 3); read-out: MIC S. a.
The subject of data set [9] is Acinetobacter baumannii ATCC19606. Briefly: MIC, CO-ADD broth microdilution. Format: cell-based. The note with it: mean (n = 2).
In data set [10] the test system is MRSA ATCC 43300. Briefly: MIC, CO-ADD broth microdilution. Format: cell-based, Staphylococcus aureus. The note with it: for MIC: Staphylococcus aureus, read-out: MIC MRSA.

In brackets after ≈: the same amount, converted by molar mass. Where two headings read alike, the source gives them in different places.

In the case of `O=C(NCCCNCCCCCCCCCCCCNCCCNC(=O)C(c1ccccc1)(c1ccccc1)c1ccccc1)C(c1ccccc1)(c1ccccc1)c1ccccc1.O=C(O)C(F)(F)F.O=C(O)C(F)(F)F` [Compound 17f, N^1,N^12-Bis(3-(2,2,2-triphenylacetamido)propyl)dodecane-1,12-diaminium 2,2,2-trifluoroacetate], the MIC in [1] is < 0.23 µM; in [2], < 0.23 µM; in [3], 300 µM; in data set [4], > 29.5 µM; in data set [5] it was > 29.5 µM; in data set [8] it was 6.25 µM. In addition, the MIC in data set [9] was > 29.5 µM; in data set [10] (MRSA ATCC 43300, mean (n = 2)) it was < 0.23 µM. The “Hemolysis (HC10, concentration at 10% hemolytic activity)” value in data set [6] was ≤0.231 µM. In addition, the IC50 at 20 h in data set [7] was ≤ 0.231 µM.

Turning to `O=C(CCc1ccccc1)NCCCNCCCCCCCCCCCCNCCCNC(=O)CCc1ccccc1.O=C(O)C(F)(F)F.O=C(O)C(F)(F)F` [Compound 13f, N^1,N^12-Bis(3-(3-phenylpropanamido)propyl)dodecane-1,12-diaminium 2,2,2-trifluoroacetate], the MIC in data set [1] is > 39.7 µM; in [2], > 39.7 µM; in data set [3] it was 300 µM; in data set [4], > 39.7 µM; in data set [5] it was > 39.7 µM; in data set [8], 50 µM. Also, the MIC in data set [9] was > 39.7 µM; in [10] (MRSA ATCC 43300, mean (n = 2)), 19.8 µM. Further, in [6], the “Hemolysis (HC10, concentration at 10% hemolytic activity)” value is >39.7 µM. Also, the IC50 at 20 h in [7] was > 39.7 µM. The “activity towards MRSA” value in [10] (MRSA) is given as “weak”.

Take `O=C(CC(c1ccccc1)(c1ccccc1)c1ccccc1)NCCCNCCCCCCCNCCCNC(=O)CC(c1ccccc1)(c1ccccc1)c1ccccc1.O=C(O)C(F)(F)F.O=C(O)C(F)(F)F` [Compound 18c, N^1,N^7-Bis(3-(3,3,3-triphenylpropanamido)propyl)heptane-1,7-diaminium 2,2,2-trifluoroacetate]: the MIC in [1] was 3.84 µM; in data set [2] it was 30.7 µM; in [3] it was 100 µM; in data set [4], 30.7 µM; in data set [5], 3.84 µM; in data set [8], 1.56 µM. Moreover, the MIC in [9] was 1.92 µM; in data set [10] (MRSA ATCC 43300, mean (n = 2)), < 0.24 µM. Besides, in data set [6], the “Hemolysis (HC10, concentration at 10% hemolytic activity)” value is 3.12 µM. In addition, the IC50 at 20 h in data set [7] came out at 13.2 µM.

For the compound `CN[C@H](CC(C)C)C(=O)N[C@H]1C(=O)N[C@@H](CC(N)=O)C(=O)N[C@H]2C(=O)N[C@H]3C(=O)N[C@H](C(=O)N[C@H](C(=O)O)c4cc(O)cc(O)c4-c4cc3ccc4O)[C@H](O)c3ccc(c(Cl)c3)Oc3cc2cc(c3O[C@@H]2O[C@H](CO)[C@@H](O)[C@H](O)[C@H]2O[C@H]2C[C@](C)(N)[C@H](O)[C@H](C)O2)Oc2ccc(cc2Cl)[C@H]1O` [vancomycin, reference compound], the MIC in data set [10] amounted to 0.7 µM (≈ 1.01 µg/mL).

As to `O=C(CCC(=O)NCCC(c1ccccc1)c1ccccc1)NCCCNCCCCCCCCNCCCNC(=O)CCC(=O)NCCC(c1ccccc1)c1ccccc1.O=C(O)C(F)(F)F.O=C(O)C(F)(F)F` [Compound 16d, N^1,N^8-Bis(3-(4-((3,3-diphenylpropyl)amino)-4-oxobutanamido)propyl)octane-1,8-diaminium 2,2,2-trifluoroacetate], the MIC was > 29.8 µM in data set [1]; > 29.8 µM in data set [2]; 300 µM in data set [3]; > 29.8 µM in data set [4]; > 29.8 µM in [5]; 12.5 µM in data set [8]. The MIC is > 29.8 µM in data set [9] and ≤ 0.23 µM in [10] (MRSA ATCC 43300, mean (n = 2)). For the same compound, the “Hemolysis (HC10, concentration at 10% hemolytic activity)” value in data set [6] was >29.8 µM. In addition, the IC50 at 20 h in data set [7] is > 29.8 µM.

Turning to `O=C(CC(c1ccccc1)(c1ccccc1)c1ccccc1)NCCCNCCCCCCNCCCNC(=O)CC(c1ccccc1)(c1ccccc1)c1ccccc1.O=C(O)C(F)(F)F.O=C(O)C(F)(F)F` [Compound 18b, N^1,N^6-Bis(3-(3,3,3-triphenylpropanamido)propyl)hexane-1,6-diaminium 2,2,2-trifluoroacetate], the MIC came out at 7.79 µM in data set [1]; 31.2 µM in data set [2]; 50 µM in data set [3]; 31.2 µM in data set [4]; 0.97 µM in data set [5]; 1.56 µM in data set [8]. The MIC was 7.8 µM in data set [9] and < 0.24 µM in data set [10] (MRSA ATCC 43300, mean (n = 2)). Also, the “Hemolysis (HC10, concentration at 10% hemolytic activity)” value in [6] was 0.985 µM. In addition, in data set [7], the IC50 at 20 h stood at 15.7 µM.

Regarding `O=C(CC(c1ccccc1)(c1ccccc1)c1ccccc1)NCCCNCCCCNCCCNC(=O)CC(c1ccccc1)(c1ccccc1)c1ccccc1.O=C(O)C(F)(F)F.O=C(O)C(F)(F)F` [Compound 18a, N^1,N^4-Bis(3-(3,3,3-triphenylpropanamido)propyl)butane-1,4-diaminium 2,2,2-trifluoroacetate], the MIC in data set [1] is 8 µM; in data set [2], 32 µM; in data set [3], 25 µM; in [4], 32 µM; in data set [5], 0.5 µM; in data set [8], 3.12 µM. Besides, the MIC in data set [9] was 4 µM; in data set [10] (MRSA ATCC 43300, mean (n = 2)) it was < 0.25 µM. Further, in [6], the “Hemolysis (HC10, concentration at 10% hemolytic activity)” value came to 1.58 µM. Also, the IC50 at 20 h in data set [7] is 18.3 µM.

Regarding `O=C(N[C@H](CO)[C@H](O)c1ccc([N+](=O)[O-])cc1)C(Cl)Cl` [chloramphenicol, reference compound], in data set [8], the MIC fell in the range of 1.5 to 3 µM (≈ 0.485 to 0.969 µg/mL).

As for `CC/C(=C(\c1ccccc1)c1ccc(OCCN(C)C)cc1)c1ccccc1` [Tamoxifen, reference compound], the IC50 at 20 h in data set [7] stood at 24 µM.

As for `O=C(CCc1ccccc1)NCCCNCCCCNCCCNC(=O)CCc1ccccc1` [Compound 13a, N^1,N^4-Bis(3-(3-phenylpropanamido)propyl)butane-1,4-diaminium 2,2,2-trifluoroacetate], the MIC was > 46.1 µM in [1]; > 46.1 µM in data set [2]; 720 µM (≈ 336 µg/mL) in [3]; > 46.1 µM in data set [4]; > 46.1 µM in [5]; 720 µM (≈ 336 µg/mL) in data set [8]. In addition, the MIC in data set [9] was > 46.1 µM; in data set [10] (MRSA ATCC 43300, mean (n = 2)), > 46.1 µM.

As for `O=C(CCC(=O)NCCCc1ccccc1)NCCCNCCCCCCCNCCCNC(=O)CCC(=O)NCCCc1ccccc1` [Compound 14c, N^1,N^7-Bis(3-(4-oxo-4-((3-phenylpropyl)amino)butanamido)propyl)heptane-1,7-diaminium 2,2,2-trifluoroacetate], the MIC is > 35.3 µM in data set [1]; > 35.3 µM in data set [2]; > 200 µM in data set [3]; > 35.3 µM in data set [4]; > 35.3 µM in data set [5]; 200 µM (≈ 136 µg/mL) in data set [8]. Moreover, the minimal inhibitory concentration (MIC) was > 35.3 µM in data set [9] and > 35.3 µM in [10] (MRSA ATCC 43300, mean (n = 2)).

On to `O=C(CCC(=O)NCCCc1ccccc1)NCCCNCCCCCCNCCCNC(=O)CCC(=O)NCCCc1ccccc1` [Compound 14b, N^1,N^6-Bis(3-(4-oxo-4-((3-phenylpropyl)amino)butanamido)propyl)hexane-1,6-diaminium 2,2,2-trifluoroacetate], for which the MIC in data set [1] was > 35.8 µM; in data set [2] it was > 35.8 µM; in data set [3] it was > 200 µM; in data set [4], > 35.8 µM; in data set [5] it was > 35.8 µM; in data set [8], > 200 µM. Further, the MIC in data set [9] is > 35.8 µM; in data set [10] (MRSA ATCC 43300, mean (n = 2)), > 35.8 µM.

For the compound `OC(Cn1cncn1)(Cn1cncn1)c1ccc(F)cc1F` [fluconazole, reference compound], the MIC worked out at 0.4 µM (≈ 0.123 µg/mL) in data set [1] and 26 µM (≈ 7.96 µg/mL) in data set [2].

Regarding `C[C@H]1c2cccc(O)c2C(=O)C2=C(O)[C@]3(O)C(=O)C(C(N)=O)=C(O)[C@@H](N(C)C)[C@@H]3[C@@H](O)[C@@H]21` [doxycycline, reference compound], in data set [3], the MIC came out at 90 µM (≈ 40 µg/mL).

Regarding `[H]/N=C(/N)N[C@H]1[C@H](O)[C@@H](O)[C@H](O[C@@H]2O[C@@H](C)[C@](O)(C=O)[C@H]2O[C@@H]2O[C@@H](CO)[C@H](O)[C@@H](O)[C@@H]2NC)[C@@H](N/C(N)=N\[H])[C@@H]1O` [streptomycin, reference compound], the MIC in data set [3] and in data set [8] was 21.5 µM (≈ 12.5 µg/mL) each time.

One may read the MIC as the lowest concentration found to suppress growth.

For the origin of these results see paper PMC10052977, “α,ω-Diacyl-Substituted Analogues of Natural and Unnatural Polyamines: Identification of Potent Bactericides That Selectively Target Bacterial Membranes” (International Journal of Molecular Sciences, 2023).
